Test [1] deals with MCF-7 cells. Nature of the test: Mitochondrial Outer Membrane Potential (MOMP) by flow cytometry. To be noted: 10 μM PL, AP; 100 mM H2O2 positive control; versus untreated cells. Format: cell-based, human. The procedure: FIG. 2: Mode of induction in MCF-7 cells after treatment with AP and PL was determined by measuring changes in MOMP and levels of apoptosis-associated proteins. The cells were incubated with 10 μM AP and PL for different time intervals to capture the timeline of apoptosis induction in MCF-7 cells. The changes in MOMP were measured using flow cytometry after treating MCF-7 cells with PL and AP for 1, 2 and 4 h (A). The alteration in expression of several apoptosis-associated proteins were determined using western blotting after incubating MCF-7 cells for 1, 2, 4, 6 h with PL (C, E) and AP (D. F).
The changes in Mitochondrial Outer Membrane Potential (MOMP) and proteins involved in the apoptotic cascade were assessed (FIG. 2).
In general terms: In flow cytometry, cells or beads pass a laser one at a time.

In test [2] the test system is MCF-7 CETP siRNA cells. Nature of the test: MMP, caspase-3/7 activity and apoptosis in CETP knockdown MCF-7 cells. Format: cell-based, human. Conditions: 25 μM tamoxifen, 24 h, CETP knockout cells. The procedure:
FIG. 10: The effect of CETP mRNA silencing on MMP (A), Capase-3/7 activity (B) and apoptosis in MCF-7 (C) and BJ (D) untransfected, cntl siRNA and CETP knockout cells after treatment with 10 μM PL or AP. Values represent the means±SD of three independent experiments.
FIG. 12: The effect of CETP mRNA knockout on Capase-3/7 activity (A) and apoptosis (B) in MCF-7 cntl siRNA and CETP knockout cells after treatment with 25 μM tamoxifen for 24 h. Values represent the means±SD of three independent experiments.
Since, as shown above, CETP is required for optimal growth of MCF-7 cells, we further hypothesized that CETP may help cancer cell to resist/escape apoptotic signals thus preventing cell death. Several apoptotic markers such as MOMP, phosphatidylserine exposure and caspase-3/7 activity were tested to establish a link between CETP and apoptosis.
Next, we intended to see if CETP silencing increased sensitivity of MCF-7 cells to apoptosis.
To test if effect of CETP knockout on apoptosis in MCF-7 is limited to AP, we treated the CETP knockout MCF-7 cells with tamoxifen (a known first line drug for breast cancer treatment). […] This observation was not limited to PL and AP as similar observations were made in CETP knockdown cells treated with tamoxifen (FIG. 12).

Take `OO` [H2O2]: the “MOMP, fluorescence in the FL-2 channel” value in test [1] is “lower fluorescent values”.
Take `CC/C(=C(\c1ccccc1)c1ccc(OCCN(C)C)cc1)c1ccccc1` [tamoxifen]: the caspase-3/7 activity result in test [2] is listed as “significant increase”.
